# Experiment: Study IN10018-006 safety: adverse events (CTCAE)
# Details: female, human, in vivo
# Description: IN10018 in combination with pegylated liposomal doxorubicin (PLD) for the treatment of platinum-resistant ovarian cancer is currently being evaluated in a Phase Ib/II clinical study (IN10018-006) in China. The IN10018 was used as its tartrate, and the PLD was used as commercially available doxorubicin hydrochloride liposome injection (common name). Study subjects received IN10018 100 mg once daily (QD) orally combined with PLD 40 mg/m^2 by intravenous infusion once every 4 weeks (Q4W). A treatment cycle was 28 days.
# By Jul. 30, 2021, a total of 26 patients with platinum-resistant ovarian cancer had been enrolled in the study. All subjects received at least one study drug treatment and were included in the safety analysis; 18 subjects had at least one post-baseline tumor imaging evaluation and were included in efficacy analysis.
# By Jun. 22, 2021, 21 of the 22 subjects enrolled had adverse events (AEs), and according to the investigator's assessment, 20 of them had AEs related to IN10018. Regardless of the correlation, the system organ classes (SOC) of AE reported by at least 2 subjects were investigations (90.9%), gastrointestinal disorders (81.8%), renal and urinary disorders (72.7%), general disorders and administration site conditions (59.1%), metabolism and nutrition disorders (59.1%), infections and infestations (54.5%), blood and lymphatic system disorders (50.0%), respiratory, thoracic and mediastinal disorders (27.3%), musculoskeletal and connective tissue disorders (22.7%), skin and subcutaneous tissue disorders (18.2%), nervous system disorders (13.6%), cardiac disorders (18.2%) and psychiatric disorders (9.1%).
# By Jun. 22, 2021, a total of 5 of the 22 subjects enrolled had serious adverse events (SAEs), of which 3 subjects reported SAEs related to IN10018: loss of appetite (grade 3, related to both IN10018 and PLD), constipation (grade 2, related to both IN10018 and PLD), abdominal distension (grade 3, related to both IN10018 and PLD), and elevated creatinine (grade 2, related to both IN10018 and PLD). No subject had adverse events leading to dose reduction of IN10018. Adverse events leading to discontinuation of study treatment were reported by 2 subjects, wherein loss of appetite (grade 3) leading to discontinuation in 1 subject was associated with both IN10018 and PLD. […] There were no adverse events leading to death in the study.
compound,measurement,value
"COc1cc(C(=O)NC2CCN(C)CC2)c(F)cc1Nc1ncc(C(F)(F)F)c(Oc2cccc3c2C(=O)N(C)C3)n1 [IN10018, 2-fluoro-5-methoxy-4-[(4-(2-methyl-3-oxo-2,3-dihydro-1H-isoindole-4-oxy)-5-trifluoromethyl-pyrimidin-2-yl)amino]-N-(1-methyl-piperidin-4-yl)benzamide]","SAE abdominal distension, grade",3 grade
same,"SAE constipation, grade",2 grade
same,"SAE elevated creatinine, grade",2 grade
same,"SAE loss of appetite, grade",3 grade
